# Results as given in US7799821B2, “Therapeutic compounds” (Allergan, Inc., priority 2004, dated 2010).
# Where two headings read alike, the source gives them in different places.
# How the values were obtained:
# EP4 receptors = target: T1, EP4 receptors (Homo sapiens, UniProt P35408); assay: Radioligand binding ([3H]PGE2), EP4
# T1 construct: expressed in transfected cells; host or cells: HEK-293
# In short: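 Membranes from HEK-293 cells stably expressing the human receptor, resuspended at 1 mg/ml protein in TME buffer pH 7.4. Competition against 5 nM [3H]PGE2 for 60 min at 25 °C, ended by filtration on GF/B filters; non-specific binding defined with 10^−5 M unlabeled PGE2.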
# hEP2/Gqs5 = target: T2, hEP2/Gqs5 (Homo sapiens, UniProt P43116); assay: FLIPR calcium signal, hEP2; assay type: cell-based
# T2 construct: expressed in transfected cells; host or cells: HEK-293(EBNA)
# T2 sequence (P43116 whole entry): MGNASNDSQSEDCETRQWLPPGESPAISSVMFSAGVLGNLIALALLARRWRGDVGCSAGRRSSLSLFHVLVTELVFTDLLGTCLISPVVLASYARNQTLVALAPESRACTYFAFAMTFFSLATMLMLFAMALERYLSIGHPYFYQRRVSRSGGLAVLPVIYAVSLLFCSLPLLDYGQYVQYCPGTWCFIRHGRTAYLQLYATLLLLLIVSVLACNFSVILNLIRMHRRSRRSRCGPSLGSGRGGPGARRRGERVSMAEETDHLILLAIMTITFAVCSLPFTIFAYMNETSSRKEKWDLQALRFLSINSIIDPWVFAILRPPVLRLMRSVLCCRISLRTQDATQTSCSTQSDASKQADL
# In short: (§1)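 HEK-293(EBNA) cells stably expressing each human prostanoid receptor (EP2 and EP3A coupled via Gqs5/Gqi5 chimeras) were loaded with Fluo-4 AM, and peak calcium fluorescence was measured on FLIPR at 37° C. Compounds were tested at 10^−5 M or from 10^−11 to 10^−5 M in duplicate, n≥3, with response expressed relative to buffer and standard agonist controls.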
# hEP3A/Gqi5 = target: T3, hEP3A/Gqi5 (Homo sapiens, UniProt P43115); assay: FLIPR calcium signal, hEP3A; assay type: cell-based
# T3 construct: expressed in transfected cells; host or cells: HEK-293(EBNA)
# T3 sequence (P43115 1-390): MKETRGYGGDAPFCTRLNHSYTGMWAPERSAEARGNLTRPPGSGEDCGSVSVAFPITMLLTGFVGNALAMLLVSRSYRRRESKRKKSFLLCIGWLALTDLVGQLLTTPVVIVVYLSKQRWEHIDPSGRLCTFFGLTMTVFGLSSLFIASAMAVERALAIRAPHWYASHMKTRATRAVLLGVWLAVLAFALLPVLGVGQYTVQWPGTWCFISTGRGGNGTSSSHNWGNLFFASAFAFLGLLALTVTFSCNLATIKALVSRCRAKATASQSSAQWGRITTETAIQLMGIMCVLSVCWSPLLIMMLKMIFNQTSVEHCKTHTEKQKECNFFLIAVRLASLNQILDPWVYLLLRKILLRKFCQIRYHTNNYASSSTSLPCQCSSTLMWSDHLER
# In short: as §1
# hEP4/Gqs5 = target: T4, hEP4/Gqs5 (Homo sapiens, UniProt P35408); assay: FLIPR calcium signal, hEP4; assay type: cell-based; conditions: for EC50: unit inferred, read-out: EP4 data flipr EC50
# T4 construct: expressed in transfected cells; host or cells: HEK-293(EBNA)
# T4 sequence (P35408 whole entry): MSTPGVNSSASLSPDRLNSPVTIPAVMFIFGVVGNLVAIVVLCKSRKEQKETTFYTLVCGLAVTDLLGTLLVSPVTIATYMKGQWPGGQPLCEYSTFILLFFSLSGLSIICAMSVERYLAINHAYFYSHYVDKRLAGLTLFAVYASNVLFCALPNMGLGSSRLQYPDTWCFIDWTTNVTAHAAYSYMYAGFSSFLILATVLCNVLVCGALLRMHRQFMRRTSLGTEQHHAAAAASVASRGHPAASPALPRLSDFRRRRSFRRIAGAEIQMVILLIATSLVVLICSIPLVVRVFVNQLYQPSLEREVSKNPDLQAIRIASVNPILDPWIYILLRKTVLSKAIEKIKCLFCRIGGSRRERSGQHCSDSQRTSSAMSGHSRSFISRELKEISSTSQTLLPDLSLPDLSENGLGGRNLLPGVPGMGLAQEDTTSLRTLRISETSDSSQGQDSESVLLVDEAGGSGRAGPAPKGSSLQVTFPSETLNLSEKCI
# In short: as §1
# hDP/Gqs5 = target: T5, hDP/Gqs5 (Homo sapiens, UniProt Q13258); assay: FLIPR calcium signal, hDP; assay type: cell-based; conditions: read-out: Other Receptors EC50 hDP
# T5 construct: expressed in transfected cells; host or cells: HEK-293(EBNA)
# T5 sequence (Q13258 1-359): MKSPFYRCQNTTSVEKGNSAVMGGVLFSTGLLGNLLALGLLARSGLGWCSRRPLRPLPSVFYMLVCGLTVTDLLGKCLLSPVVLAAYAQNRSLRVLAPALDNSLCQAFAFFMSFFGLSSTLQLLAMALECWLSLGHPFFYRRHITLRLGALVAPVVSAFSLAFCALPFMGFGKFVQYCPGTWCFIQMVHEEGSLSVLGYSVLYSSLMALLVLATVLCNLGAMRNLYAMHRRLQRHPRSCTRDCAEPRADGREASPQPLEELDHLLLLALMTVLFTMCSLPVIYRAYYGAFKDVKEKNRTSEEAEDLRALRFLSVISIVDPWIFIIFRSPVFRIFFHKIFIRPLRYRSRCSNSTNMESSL
# Description: HEK-293(EBNA) cells, stably expressing one type or subtype of recombinant human prostaglandin receptors (prostaglandin receptors expressed: hDP/Gqs5; hEP1; hEP2/Gqs5; hEP3A/Gqi5; hEP4/Gqs5; hFP; hIP; hTP), were cultured in 100 mm culture dishes in high-glucose DMEM medium containing 10% fetal bovine serum, 2 mM 1-glutamine, 250 μg/ml geneticin (G418) and 200 μg/ml hygromycin B as selection markers, and 100 units/ml penicillin G, 100 μg/ml streptomycin and 0.25 μg/ml amphotericin B. • (b) Calcium Signal Studies on the FLIPR™
# Cells were seeded at a density of 5×10^4 cells per well in Biocoat® Poly-D-lysine-coated black-wall, clear-bottom 96-well plates (Becton-Dickinson) and allowed to attach overnight in an incubator at 37° C. Cells were then washed two times with HBSS-HEPES buffer (Hanks Balanced Salt Solution without bicarbonate and phenol red, 20 mM HEPES, pH 7.4) using a Denley Cellwash plate washer (Labsystems). After 45 minutes of dye-loading in the dark, using the calcium-sensitive dye Fluo-4 AM at a final concentration of 2 μM, plates were washed four times with HBSS-HEPES buffer to remove excess dye leaving 100 μl in each well. Plates were re-equilibrated to 37° C. for a few minutes.
# Cells were excited with an Argon laser at 488 nm, and emission was measured through a 510-570 nm bandwidth emission filter (FLIPR™, Molecular Devices, Sunnyvale, Calif.). Drug solution was added in a 50 μl volume to each well to give the desired final concentration. The peak increase in fluorescence intensity was recorded for each well. On each plate, four wells each served as negative (HBSS-HEPES buffer) and positive controls (standard agonists: BW245C (hDP); PGE2 (hEP1; hEP2/Gqs5; hEP3A/Gqi5; hEP4/Gqs5); PGF2α (hFP); carbacyclin (hIP); U-46619 (hTP), depending on receptor). The peak fluorescence change in each drug-containing well was then expressed relative to the controls.
# Compounds were tested in a high-throughput (HTS) or concentration-response (CoRe) format. In the HTS format, forty-four compounds per plate were examined in duplicates at a concentration of 10^−5 M. To generate concentration-response curves, four compounds per plate were tested in duplicates in a concentration range between 10^−5 and 10^−11 M. The duplicate values were averaged. In either, HTS or CoRe format each compound was tested on at least 3 separate plates using cells from different passages to give an n≧3.
# [1] = unit inferred, read-out: EP4 data KI
# [2] = unit inferred, other columns of the table in nM, read-out: EP2 data flipr EC50
# [3] = read-out: Other Receptors EC50 hEP3A
# T1 sequence (P35408 whole entry): as the sequence (P35408 whole entry) above
SMILES,"Ki (EP4 receptors; Table 3, third part, read-out: BINDING-Ki (nM) EP4) [nM]","EC50 (hEP2/Gqs5; Table 3, third part, value outside parentheses, read-out: Ca2+ Signal-EC50 (nM) EP2) [nM]","EC50 (hEP3A/Gqi5; Table 3, third part, read-out: Ca2+ Signal-EC50 (nM) EP3) [nM]","Ca2+ Signal-EC50 (nM) EP4 (hEP4/Gqs5; Table 3, third part)",Ki (EP4 receptors; [1]) [nM],EC50 (hEP2/Gqs5; [2]) [nM],EC50 (hEP3A/Gqi5; [3]) [nM],EC50 (hEP4/Gqs5) [nM],EC50 (hDP/Gqs5) [nM]
CCCCCC(C)c1ccc([C@@H]2[C@@H](C/C=C\CCCC(=O)O)[C@H](C#N)C[C@H]2C)cc1 (stereo partly shown),> 10000,34,10000,not active,–,–,–,–,–
CCCCCC(=O)c1ccc(N2C(=O)CC[C@@H]2CCCc2ccc(C(=O)O)s2)cc1,–,–,–,–,> 10000,16,2340,> 10000,7700
CC(C)(C)c1ccc(N2C(=O)CC[C@@H]2COCc2ccc(C(=O)O)o2)cc1,–,–,–,–,> 10000,442,> 10000,> 10000,1920
CC(C)(C)c1ccc(N2C(=O)CC[C@@H]2COCc2ccc(C(=O)O)s2)cc1,–,–,–,–,> 10000,1340,19200,> 10000,2320
CC(C)(C)c1ccc(N2C(=O)CC[C@@H]2CCCCCCC(=O)O)cc1,–,–,–,–,> 10000,4120,19500,> 10000,> 10000
"CCCCCC(O)c1ccc(N2C(=O)CC[C@@H]2COCc2ccc(C(=O)O)s2)cc1 (single isomer, unassigned) [drawing 148]",–,–,–,–,> 10000,62,153,> 10000,7750
"CCCCCC(O)c1ccc(N2C(=O)CC[C@@H]2CCCc2ccc(C(=O)O)s2)cc1 (single isomer, unassigned) [drawing 151]",–,–,–,–,–,1.6,156,> 10000,296
"CCCCCCC(O)c1ccc(N2C(=O)CC[C@@H]2COCc2ccc(C(=O)O)s2)cc1 (single isomer, unassigned) [drawing 152]",–,–,–,–,–,134,71,–,6830
"CCCCCCC(O)c1ccc(N2C(=O)CC[C@@H]2CCCc2ccc(C(=O)O)s2)cc1 (single isomer, unassigned) [drawing 155]",–,–,–,–,–,–,7,–,37
"CCCCCCC(O)c1ccc(N2C(=O)CC[C@@H]2CCCc2ccc(C(=O)O)s2)cc1 (single isomer, unassigned) [drawing 156]",–,–,–,–,–,5,33,–,106
"CCCCCC(O)c1ccc(N2C(=O)CC[C@@H]2COCc2ccc(C(=O)O)s2)cc1 (single isomer, unassigned) [drawing 176]",–,–,–,–,> 10000,62,153,> 10000,7750
"CCCCCC(O)c1ccc(N2C(=O)CC[C@@H]2COCc2ccc(C(=O)O)s2)cc1 (single isomer, unassigned) [drawing 177]",–,–,–,–,6030,15,1200,> 10000,6800
"CCCCCC(O)c1ccc(N2C(=O)CC[C@@H]2CCCc2ccc(C(=O)O)s2)cc1 (single isomer, unassigned) [drawing 178]",–,–,–,–,> 10000,6,12,> 10000,812
"CCCCCC(O)c1ccc(N2C(=O)CC[C@@H]2CCCc2ccc(C(=O)O)s2)cc1 (single isomer, unassigned) [drawing 179]",–,–,–,–,4850,1.6,156,> 10000,296
"CCCCCC(O)c1ccc(N2C(=O)CC[C@@H]2CCCc2ccc(C(=O)O)s2)cc1 (single isomer, unassigned) [drawing 180]",–,–,–,–,3840,134,71,–,6830
"CCCCCCC(O)c1ccc(N2C(=O)CC[C@@H]2CCCc2ccc(C(=O)O)s2)cc1 (single isomer, unassigned) [drawing 183]",–,–,–,–,–,16,7,–,37
"CCCCCCC(O)c1ccc(N2C(=O)CC[C@@H]2CCCc2ccc(C(=O)O)s2)cc1 (single isomer, unassigned) [drawing 184]",–,–,–,–,–,5,33,–,106
CCCCCC(O)c1ccc(N2C(=O)CC[C@@H]2CCCc2ccc(C(=O)O)s2)cc1 (stereo partly shown) [drawing 145],–,–,–,–,> 10000,5,155,–,1230
CCCCCC(O)c1ccc(N2C(=O)CC[C@@H]2CCCc2ccc(C(=O)O)s2)cc1 (stereo partly shown) [drawing 173],–,–,–,–,> 10000,5,155,–,1230
